In PMC5557808 (Nature Communications, 2017):
Where a SMILES comes first, the peptide text is derived from it. The star is where a group is joined. X1 = CC[N+](CC)(CC(=O)Nc1c(C)cccc1C)Cc1cccc(C(=O)*)c1

Key:
[1] = molecular target: T1, MMP-8 (Homo sapiens, UniProt P22894); test: MMP-8 cleavage of soluble PCL conjugates (HPLC decrease of main peak); type: biochemical; conditions: up to 12 h; control PCLs; MMP-8 buffer pH 6.8-7.0, 37 °C
T1 construct: purchased EMD Millipore Corporation (Billerica, MA)
T1 sequence (P22894 101-467): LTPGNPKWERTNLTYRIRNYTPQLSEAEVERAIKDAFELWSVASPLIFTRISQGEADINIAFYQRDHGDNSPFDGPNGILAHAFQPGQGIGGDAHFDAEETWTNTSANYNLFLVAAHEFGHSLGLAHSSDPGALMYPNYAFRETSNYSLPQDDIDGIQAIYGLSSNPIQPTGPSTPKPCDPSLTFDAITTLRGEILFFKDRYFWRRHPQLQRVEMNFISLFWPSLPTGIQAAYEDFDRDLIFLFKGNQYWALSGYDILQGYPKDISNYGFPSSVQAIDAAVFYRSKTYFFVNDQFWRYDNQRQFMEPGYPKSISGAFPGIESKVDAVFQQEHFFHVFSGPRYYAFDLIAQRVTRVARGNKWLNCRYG
Protocol: Pro-MMPs (e.g., MMP-8, MMP-1, or MMP-9; used at 0.1 mg/mL and >100.0 mU/mg based on the manufacturer’s information) were activated with p-aminophenylmercuric acetate (APMA) (8). For that, a 10 mM stock solution of APMA was freshly prepared in 0.1 M NaOH and a 10:1 (v/v) ratio of the respective proenzyme and the APMA solution (MMP:APMA) was incubated for 3 h at 37 °C. The activity was confirmed using the MMP-8 detection kit (QuickZyme Biosciences, Leiden, the Netherlands). A stock solution (90 µg/mL) of the activated MMP was prepared (used for cleavage studies on the PCL or the fully assembled microparticle-PCL-tastant setup (sensor), in MMP-8 buffer (200 mM NaCl, 50 mM Tris-HCl, 5 mM CaCl2, 1 µM ZnCl2, 0.05% Brij 35 at pH 6.8–7.0). All MMP experiments are described in detail in the Supplementary Methods. […]
in water ( v/v)) and eluent B (0.1 % TFA in 2:3 water-acetonitrile (v/v)) and a gradient from 33 to 80% elu ent B within 30 minutes. UV absorption was r ead at λ = 280 nm or 220 nm. After freezing the samples at -80 °C, fr eeze- drying was performed on a Christ Alpha 1 -4 de vi ce (Martin Christ Gefriertrocknungs anlagen, Osterode am Harz, G e r ma n y) at a desublimers ’ te mperature of - 60 ° C, pressure of 1.030 mbar and processing temperature of 19 °C.
Pro-MMPs (e. g. MMP -8, MMP -1 or MMP-9; adapted to 0.1 mg/mL and > 100.0 mU/mg based on manufacturer information and when appropriate) were activated with APMA 8. For that, a 10 mM stock solution of APMA in 0.1 M NaOH was freshly prepared and a 10:1 (v/v) ratio of the r especti ve proenzyme and APMA solution (MMP:APMA) was incubated for 3 h at 37 °C. The activity was conf ir med using the MMP-8 detection kit (Q uic kZ ym e® Biosciences, Leiden, Netherlands). A stock solution (90 µg/mL) of the activated MMP was prepared (used for cleavage studies on the pr ot eas e-cleavable linker (PCL; e.g. Figure 2) or the fully assemb led microparticle -PCL- t ast ant setup (sensor; e.g. Figure 3) , in MMP -8 buffer (200 mM NaCl, 50 mM Tris-H Cl, 5 mM C aC l2, 1 µM ZnCl2, 0.05 % Brij35 at pH 6.8- 7.0). A ll MMP -8 exp eriments wer e performed as follo ws. 25 µg of the sensor ( see chap ter : Peptide-coupling to beads (Sensor)) in 100 µL MMP-buffer or 1 mg of FP LC -purified and lyophilized PCL as described dissolved 2 mL M MP -buffer resulting in a final concentration of 0.5 mg/ mL substrate was used. […]
Figure 2A , 3, 4B ). […]
(sensor) in co mpar ison to negative controls (the negative controls for the PCL an d sensor exper i men ts were b y incubation without MMP under otherwise identical conditions). The relative d ecreas e of the PCL’s ma in peak was char act er ized by HPLC (PCL) or of the sensor’s fluorescence b y FACS (sensor) in comparison to control. […]

[2] = test system: MMP-8, then leucine aminopeptidase (AP); test: MMP-8 for 22 h, followed by exposure to AP in AP buffer; conditions: porcine kidney (AP), 37 °C, up to 22 h MMP + 30 minutes AP
[3] = test system: MMP-8; test: MMP-8 in MMP-8 buffer; conditions: human, 37 °C, up to 22 h
[4] = test system: MMP-8; test: MMP-8 buffer (200 mM NaCl, 50 mM Tris-HCl, 5 mM CaCl2, 1 µM ZnCl2, 0.05% Brij 35 at pH 6.8–7.0); conditions: human, 37 °C, up to 6 hours
[5] = test system: MMP-8; test: MMP-8; conditions: human, up to 12 h
[6] = molecular target: T2, Leucine aminopeptidase (AP) (Sus scrofa, UniProt P15145); test: Aminopeptidase (AP) incubation; type: biochemical, porcine
T2 construct: Leucine aminopeptidase (AP; Mw = 280 kDa) from porcine kidney; purchased Sigma-Aldrich Chemie, Schnelldorf, Germany; host or cells: porcine kidney (tissue-derived)
T2 sequence (P15145 1-963): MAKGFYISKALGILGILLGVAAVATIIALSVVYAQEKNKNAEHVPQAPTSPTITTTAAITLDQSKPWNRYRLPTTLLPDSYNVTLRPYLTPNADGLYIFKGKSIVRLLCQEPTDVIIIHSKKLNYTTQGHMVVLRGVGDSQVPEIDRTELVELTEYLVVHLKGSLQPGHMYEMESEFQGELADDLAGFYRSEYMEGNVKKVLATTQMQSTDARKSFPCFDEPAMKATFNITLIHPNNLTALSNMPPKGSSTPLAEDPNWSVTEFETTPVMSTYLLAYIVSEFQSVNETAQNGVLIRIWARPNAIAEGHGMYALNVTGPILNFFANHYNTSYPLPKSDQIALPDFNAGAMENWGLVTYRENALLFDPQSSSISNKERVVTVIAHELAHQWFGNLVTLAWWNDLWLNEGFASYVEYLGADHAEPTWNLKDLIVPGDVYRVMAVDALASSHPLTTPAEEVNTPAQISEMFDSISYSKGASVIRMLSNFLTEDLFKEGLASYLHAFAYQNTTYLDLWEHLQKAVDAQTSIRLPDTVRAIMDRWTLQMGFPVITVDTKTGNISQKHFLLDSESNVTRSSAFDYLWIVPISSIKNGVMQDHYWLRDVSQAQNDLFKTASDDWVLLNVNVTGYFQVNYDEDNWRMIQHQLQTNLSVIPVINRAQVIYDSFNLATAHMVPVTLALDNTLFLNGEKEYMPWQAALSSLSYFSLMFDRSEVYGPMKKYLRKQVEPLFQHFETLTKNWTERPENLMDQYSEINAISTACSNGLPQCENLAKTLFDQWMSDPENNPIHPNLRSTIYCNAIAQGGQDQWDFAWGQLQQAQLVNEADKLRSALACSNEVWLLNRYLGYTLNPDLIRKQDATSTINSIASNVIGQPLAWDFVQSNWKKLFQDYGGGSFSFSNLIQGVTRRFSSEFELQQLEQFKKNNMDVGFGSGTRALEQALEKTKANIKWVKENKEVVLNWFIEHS
Protocol: Leucine aminopeptidase (AP; Mw = 280 kDa) from porcine kidney dissolved in AP buffer (50 mM Tris-HCl, 1 mM CaCl2, and 150 mM NaCl at pH 7.0) was used. L-leucine-p-nitroanilide (0.125 mg/mL) was used as control substrate. For AP digestion, 1 mg of purified lyophilized peptide was diluted in 2 mL AP buffer resulting in a final concentration of 0.5 mg/mL substrate. To evaluate the impact of AP concentration on peptide cleavage, AP was added at concentrations of 0 (negative control), 0.87, 8.7, 39, and 78 µg/mL and the samples were incubated at 37 °C for 1 h. For analysis of the AP incubation time, an AP concentration of 0.87 µg/mL was used and analyzed after 10, 20 min and 1, 2, 3, and 6 h. To stop the enzyme activity, samples were kept at 95 °C for 15 min. Afterwards, HPLC analyses were performed (as described in the Supplementary Information) to analyze the relative decrease of the main peak as compared to the negative control. Further details are given in the Supplementary Methods.
MMP -9) in a concentration of 0.4 ng/µL (50 µL) were mixed with MMP -8 buffer (37 µL), detection enz yme (5 µL) and substrate (8µL; all fro m Q uic kZ yme® ). The acti vi t y was meas ur ed for 12 hours in inter vals of 10 minutes. […]
Aminopeptidase (AP) incubation
Leucine A minopeptidase (AP; M w = 280 kD a) from porcine kidney dissolved in AP buffer (50 mM Tris-HCl, 1 mM CaCl2 and 150 mM NaCl at pH 7.0) was used. L-leu cin e-p-nitroan ilide (0.125mg/ mL) was used as control substr at e. […] Fo r anal ysis of the impact of AP incubation time, the identical conditions were used (AP concentration of 0.87 µg / mL (and analyzed after 10, 20 minutes and 1, 2, 3 and 6 hours ). To stop the enzymatic activit y, sa mp les wer e kept at 95 °C for 15 minutes. A fterwards, H PLC analys es were p erformed (as descr ibed) to an al yze th e relative d ecr eas e of the ma i n pea k as co mp ared to the negative control (see […]
V(B)/(V(A)+V(B)) = 5 % to 90 % over 10 min, V(B)/(V(A)+V(B)) = 90 % for 5 min, V(B)/(V(A)+V(B)) = 90 % to 5 % over 3 min. […] UV detection was measured at 254 nm. […]

Cf-GPLGI AGQ-A( N3)-Q [ID #3, control PCL, exchange Q3L]
cleavage by MMP-8 [1]: not cleaved

A( N3)-GPQGIA GQ-K-De
fragment found [2]: denatonium coupled lysin
cleaved bond [3]: G-I
cleaved bond [4]: G-I

Cf-GPLGI AGQ-A( N3)-Q
not cleaved [5]: not cleaved by MMP-8 up to 12 h

De-GPQG
not cleaved [2]: no difference after additional AP incubation for 30 minutes

Cf-GPQGYAGQ-A( N3)-Q
not cleaved [5]: not cleaved by MMP-8 up to 12 h

CC[C@H](C)[C@H](N)C(=O)N[C@@H](C)C(=O)NCC(=O)N[C@@H](CCC(N)=O)C(=O)N[C@@H](CCCCNC(=O)c1cccc(C[N+](CC)(CC)CC(=O)Nc2c(C)cccc2C)c1)C(N)=O [ID #5a] (H-IAGQK(X1)-NH2)
cleavage of the peptide denatonium fragment by aminopeptidase ([6]; 870 ng/mL AP, within 250 min, 0.5 mg/mL substrate, AP buffer pH 7.0, 37 °C, HPLC, n = 5): 80%

Cf-GP QGIA GQ-A( N3)-Q
cleaved bond [4]: G-I

Cf-GPQGYAGQ-A( N3)-Q [ID #4, control PCL, exchange I5Y]
cleavage by MMP-8 [1]: not cleaved

A( N3)-GPQGIA GQ-K-De [ID #5, second-generation PCL denatonium conjugate]
effect of additional AP incubation after complete MMP-8 cleavage ([6]; AP 3.1 nM (0.87 µg/mL), 30 min, 37 °C, after 22 h with 1800 ng/mL MMP-8, LC-MS): emerging peaks
